Measured values from the NIST ThermoML archive (doi:10.1016/j.fluid.2017.03.021).

Conditions: 101.33 kPa, Liquid, Vibrating tube method

CCCCCC[n+]1ccn(C)c1.O=S(=O)([N-]S(=O)(=O)C(F)(F)F)C(F)(F)F
Conditions	mass density [kg/m3]
293.15 K	1377.1
298.15 K	1372.5
303.15 K	1367.8
308.15 K	1363.5
313.15 K	1358.7
318.15 K	1354.3
323.15 K	1349.6
328.15 K	1345.2
333.15 K	1340.5
338.15 K	1336.2
343.15 K	1331.6
